According to patent US5981498A, “Agent for improving the blood circulation” (Kabushiki Kaisha Hayashibara Seibutsu Kagaku Kenkyujo, priority 1997, dated 1999):

How the values were obtained:
[1] = system: lumbago or chronic stiffness in the shoulder; assay: Clinical test, cataplasm (Table 1); assay type: in vivo, human; conditions: versus sucrose; Tables 1 and 2
Procedure: A clinical paramedic conducted the experiment and, after the experiment, asked the therapeutic effect and the side effects of the volunteers. The therapeutic effect was evaluated with four ranks of "very effective", "effective", "unchanged", and "worsened", and the effectivity (%) was calculated as a percentage of the number of volunteers, who answered "very effective" and "effective", to the total number of volunteers.

[2] = system: blood flow, dorsum cucullaris of volunteer with stiffness in both shoulders; assay: Plethysmogram / volume pulse wave (PTG), improvement of blood circulation; assay type: in vivo, human; conditions: similar experiment on vitamin P, cataplasm, MV and PTG
Text: MV is an apparatus for recording micro-vibration of ballistic components accompanied by muscular fibers in vivo and heartbeat by converting the micro-vibration into an electrodynamic phenomenon where peaks are detected at a high-frequency region in patients with muscular rigidity such as stiffness in the shoulder, and the peaks are shifted to a lower-frequency region as the muscular rigidity is relived. PTG is an apparatus for detecting blood flow as a vascular change in pressure and for expressing change in volume as a wave-height level; When the wave-height level is increased as the increment of blood flow in a stiff part in the shoulder, meaning that blood circulation is improved.
The patient was monitored for both MV and PTG by a polygraph for 20 min, and the data were recorded by a data recorder.
On the next morning, the cataplasm was removed from the volunteer while they were allowed to lay on the bed, followed by attaching pickups to the same part as of the cataplasm for measuring and recording MV and PTG for 30 min and for two hours, respectively, similarly as above.

Compound | effect of trehalose on the muscular-rigidity-relieving activity of glycosyl vitamin P [1] | effect as compared with control [2]
OC[C@H]1O[C@H](O[C@H]2O[C@H](CO)[C@@H](O)[C@H](O)[C@H]2O)[C@H](O)[C@@H](O)[C@@H]1O [trehalose] | significantly augmented | –
vitamin P | – | substantially showed no remarkable effect
